In patent US20230312510A1, “COMPOUNDS AND METHODS FOR TREATING NEURODEGENERATIVE DISEASES” (The McLean Hospital Corporation, priority 2020, published 2023):
In brackets after ≈: the same amount, converted by molar mass. Several values for one entry are separate records, joined by “and”; a condition that tells them apart may be missing. Equal values may be shown once.

What was measured:
Nurr1-LBD [1] = target: T1, Nurr1-LBD (Homo sapiens, UniProt P43354); assay: Radioligand competition binding assay using [3H]-CQ
T1 sequence (P43354 360-595 limits assumed): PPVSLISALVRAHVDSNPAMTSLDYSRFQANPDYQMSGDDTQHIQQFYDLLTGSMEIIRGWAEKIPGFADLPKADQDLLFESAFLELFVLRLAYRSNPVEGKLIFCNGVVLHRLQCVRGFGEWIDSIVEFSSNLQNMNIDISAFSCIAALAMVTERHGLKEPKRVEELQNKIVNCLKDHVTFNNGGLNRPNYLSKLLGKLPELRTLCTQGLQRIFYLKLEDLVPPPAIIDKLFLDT

full-length Nurr1 = target: T2, full-length Nurr1 (Homo sapiens, UniProt P43354); assay: Luciferase activity assay (p4xNL3-Luc reporter) with full-length Nurr1 in SK-N-BE(2)C cells; assay type: cell-based
T2 construct: expressed in transfected cells; host or cells: SK-N-BE(2)C human neuroblastoma cells
T2 sequence (P43354 whole entry): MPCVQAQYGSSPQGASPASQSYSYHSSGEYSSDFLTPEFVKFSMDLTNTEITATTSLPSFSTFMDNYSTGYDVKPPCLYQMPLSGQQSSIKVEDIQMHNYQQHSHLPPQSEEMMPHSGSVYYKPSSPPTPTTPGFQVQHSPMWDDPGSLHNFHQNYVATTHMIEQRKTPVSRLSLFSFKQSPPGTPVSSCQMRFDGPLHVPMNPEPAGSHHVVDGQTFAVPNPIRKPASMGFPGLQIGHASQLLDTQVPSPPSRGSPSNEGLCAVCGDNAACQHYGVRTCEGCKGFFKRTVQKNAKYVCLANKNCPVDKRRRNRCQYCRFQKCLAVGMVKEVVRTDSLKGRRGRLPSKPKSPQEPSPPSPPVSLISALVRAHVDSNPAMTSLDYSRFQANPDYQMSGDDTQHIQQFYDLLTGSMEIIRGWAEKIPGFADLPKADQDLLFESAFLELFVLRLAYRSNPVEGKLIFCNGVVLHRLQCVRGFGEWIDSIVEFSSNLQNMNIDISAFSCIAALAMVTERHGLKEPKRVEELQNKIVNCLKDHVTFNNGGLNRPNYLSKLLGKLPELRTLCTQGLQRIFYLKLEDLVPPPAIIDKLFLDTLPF

[2] = system: Nurr1-LBD and full-length Nurr1; assay: Luciferase activity assay (Nurr1 transactivation) in MN9D cells; assay type: cell-based, murine
[3] = system: Nurr1-LBD and full-length Nurr1; assay: Luciferase activity assay (Nurr1 transactivation) in N27-A cells; assay type: cell-based, murine
Nurr1 = target: T3, Nurr1 (Homo sapiens, UniProt P43354); assay: Relative luciferase activity versus previously reported compounds in SK-N-BE(2)C cells; assay type: cell-based; conditions: compared with control, AQ, CQ, SM-485, ATH-393, SR-175
T3 construct: expressed in transfected cells; host or cells: SK-N-BE(2)C cells
T3 sequence (P43354 whole entry): as above
Description: Each bar indicates Mean±SEM from three independent experiments.

[4] = Brain permeability (plasma and brain levels by LC-MS/MS) after i.v. injection; assay type: in vivo; conditions: rats, 5 mg/kg i.v., 5 min and 1 hr
Method: Rats (n=6) were killed at 5 min and 1 hr after i.v. administration, and brain and plasma were collected for blood-brain barrier (BBB) penetration analysis. The concentrations of each compound in plasma (A) and brain (B) were determined by LC-MS/MS (liquid chromatography-tandem mass spectrometry). The brain/plasma ratio (B/P ratio) (C) is calculated at each time point.

[5] = system: mouse embryonic ventral mesencephalic (mVM) primary neurons; assay: Dopaminergic gene expression in mVM primary neurons with or without 6-OHDA; assay type: cell-based
Method: FIGS. 8A-8D show dopaminergic (DAergic) gene expressions in the absence or presence of 6-OHDA (20 μM) in mouse embryonic ventral mesencephalic (mVM) primary neurons derived from embryonic day 12.5 (E12.5).

BV2 cells = assay: LPS-induced TNFα mRNA expression in BV2 cells (real-time PCR); assay type: cell-based, mouse; conditions: LPS 1 μg/ml, compound 1 μM
Description: (§1) Besides the role as an activator of DAergic genes, Nurr1 is known as a repressor of inflammatory genes in astrocytes and microglia (See Saijo et al., Cell 2009, 137, 47-59).

[6] = system: mouse bone marrow-derived primary macrophages (mBMMs); assay: LPS- or poly(I:C)-induced pro-inflammatory gene expression in mBMMs; assay type: cell-based; conditions: CQ 10 μM, SPV-94 1 μM
Description: as §1

HeLa cells = assay: Starvation-induced autophagy in HeLa cells (Western blot of LC3B and p62); assay type: cell-based; conditions: EBSS 0-4 hrs, BafA1 10 nM, CQ 20 μM, SPV-94 1 μM
Method: To limit basal autophagy, cells were incubated in fresh growth medium for 1 hr before starvation. Samples were analyzed by Western blot using autophagic flux markers LC3B and p62 (A) and its expression levels were quantified (10B and 10C).

N27-A cells [7] = assay: Starvation-induced autophagy and Nurr1 expression in N27-A cells with or without MPP+; assay type: cell-based
Method: LC3B, p62 and Nurr1 expression levels determined by Western blot (D) were quantified.
Next, autophagy regulation was assessed in a dopaminergic cell line N27-A in the absence or presence of MPP^+ (1 mM). […] Furthermore, it was observed that MPP disrupted autophagy showing accumulated LC3B-II and remained p62 at the late-stage, which corresponds to the previous studies (See Lim et al., Autophagy 2011, 7, 51-60; Hung et al., PLoS ONE 2014, 9, e91074; Park et al., J Biol Chem 2016, 291, 3531-3540).
Referring to FIGS. 10D-10G, N27-A cells were treated with vehicle or MPP+ (1 mM) for 24 hrs and then changed with fresh growth medium with or without MPP+ 1 hr before starvation. […] To induce autophagy, N27-A cells were incubated in EBSS for 0-4 hrs, in the absence or presence of MPP+. Samples were analyzed by Western blot using autophagic flux markers LC3B and p62 (D) and its expression levels were quantified (10E and 10F). […] (10G) Nurr1 expression level changes were also analyzed and quantified.

[8] = pH 7.4
MN9D cells [9] = system: MN9D cells
Method: (§2) Cell viability and cytotoxicity were measured by MTT (3-(4,5-dimethylthiazol-2-yl)-2,5-diphenyltetrazolium bromide) reduction assay.
(§3) Cell viability and cytotoxicity were measured by lactate dehydrogenase (LDH) release assay.

[10] = system: MPTP-induced PD model mice; conditions: mouse, in vivo
Method: (§4) Sub-chronic MPTP regimen (30 mg/kg/day, 5 days) was introduced.

[11] = system: MPTP-induced PD model mice; assay: Sub-chronic MPTP-induced mice model of PD
Method: as §4

N27-A cells [12] = assay: Protection against MPP+-induced toxicity in N27-A cells (MTT, LDH); conditions: 1 mM MPP+
Nurr1-LBD [13] = target: T1, Nurr1-LBD; assay: Luciferase activity assay (p4xNL3-Luc reporter) with Nurr1-LBD in SK-N-BE(2)C cells; assay type: cell-based; set-up: expressed in transfected cells; host or cells: SK-N-BE(2)C human neuroblastoma cells
MN9D cells [14] = assay: Protection against MPP+-induced toxicity in MN9D cells (MTT reduction, LDH release)
Method: as §2, §3

[15] = L-DOPA 50, CQ 40, SPV-94 5 mg/kg/day

CCN1CCN(c2cc(NCCNc3ccnc4cc(Cl)ccc34)nc(N3CCN(CC)CC3)n2)CC1 [SPV-94]
Ki (Nurr1-LBD [1]): 0.0111 µM
IC50 (Nurr1-LBD [1]; 1,000 nM [3H]-CQ, 0.2 μM Nurr1-LBD, estimated, read-out: half maximal inhibitory concentration (IC50), competition with [3H]-CQ for binding to Nurr1-LBD): 0.05 µM
times higher affinity to Nurr1-LBD than CQ, based on IC50s (Nurr1-LBD [1]; versus CQ): 20 times
concentration of maximal efficiency, full-length Nurr1 transcriptional activity (full-length Nurr1; SK-N-BE(2)C cells): 20 µM
EC50 (full-length Nurr1; SK-N-BE(2)C cells, read-out: EC50, transcriptional activity of full-length Nurr1): ~10 µM and 10 µM
fold lower concentration of maximal efficiency than CQ, full-length Nurr1 (full-length Nurr1; versus CQ): 5 fold
EC50 [2]: ~0.05 µM
transcriptional activities of Nurr1-LBD and full-length Nurr1 [2]: enhanced transcriptional activities
EC50 [3]: ~0.05 µM
transcriptional activities of Nurr1-LBD and full-length Nurr1 [3]: enhanced transcriptional activities
relative luciferase activity (transactivity) among selected candidates (Nurr1): markedly highest transactivity among the selected candidates
penetration into the brain (brain and plasma concentration, B/P ratio) [4]: penetrated into the brain slower than CQ and consistently maintained its level
DAergic gene expressions downregulated by 6-OHDA toxicity ([5]; 6-OHDA 20 μM, CQ 20 μM, SPV-94 0.5 μM): significant recovery of downregulated DAergic gene expressions
mRNA expression levels of DAergic genes (TH, DAT, AADC, VMAT2, c-Ret, Pitx3) ([5]; CQ 20 μM, SPV-94 0.5 μM, vs vehicle): significantly upregulated mRNA expression levels of DAergic genes
effects on DAergic gene expression in Nurr1 knockdown condition ([5]; Nurr1 KD): disappeared
suppression of TNFα expression compared to LPS only (BV2 cells): 20.67%
LPS- or poly(I:C)-induced pro-inflammatory gene expressions (TNFα, iNOS, IL-1β, IL-6) [6]: dramatically suppressed all four pro-inflammatory gene expressions
autophagy process (LC3B, p62) (HeLa cells): initiated and also terminated autophagy process resulting in significant p62 degradation
basal Nurr1 expression level compared to VEH (N27-A cells [7]; CQ 20 μM, SPV-94 1 μM): significantly higher
MPP+-induced autophagy dysregulation (p62 degradation) (N27-A cells [7]; MPP+ 1 mM): seemed to protect N27-A cells from MPP+-induced autophagy dysregulation leading to successful p62 degradation
Nurr1 expression against MPP+ (N27-A cells [7]; MPP+ 1 mM, SPV-94 1 μM): maintained Nurr1 expression against MPP+
autophagy termination (LC3B, p62) (N27-A cells [7]; starvation 0-4 hrs, BafA1 10 nM, CQ 20 μM, SPV-94 1 μM): autophagy was successfully terminated
solubility [8]: 504.88 µM (≈ 265 µg/mL)
times lower concentration of maximal efficiency than CQ, protection from MPP+-induced cytotoxicity (MN9D cells [9]): 10 times
dyskinesia in the abnormal involuntary movements (AIMs) test [10]: did not trigger dyskinesia
olfactory discrimination test (olfaction), sub-acute stage [11]: significantly recovered olfaction
body weight recovery [11, 15]: restored it even earlier, after day 6
cylinder test, rearing numbers, sub-chronic treatment [11, 15]: recovered rearing numbers in the cylinder test
pole test, time to traverse, sub-chronic treatment [11, 15]: reduced time to traverse on a pole
rotarod latency to fall, sub-chronic treatment [11, 15]: significantly improved motor deficits on the rotarod latency to fall
Nurr1-immunoreactive cells ([11]; SNpc): significantly retained Nurr1-immunoreactive cells
GFAP immunoreactivity, activated astrocytes ([11]; STR): reduced number of activated astrocytes
Iba-1+ microglia numbers ([11]; STR and SNpc): significantly reduced numbers of Iba-1+ microglia
TH+ DAergic neurons (counting and densitometry) ([11]; STR, SNpc and OB): significantly restored DAergic neurons
olfactory discrimination test (olfaction), chronic treatment ([11]; day 14): significantly recovered olfaction
rotarod latency to fall, chronic treatment ([11]; day 15): improved latency to fall on the rotarod on day 15
cell viability, MTT assay (N27-A cells [12]): dose-dependently increased cell viability in MTT assay
concentration of maximal efficiency, Nurr1-LBD transcriptional activity (Nurr1-LBD [13]; SK-N-BE(2)C cells): 20 µM
EC50 (Nurr1-LBD [13]; SK-N-BE(2)C cells, read-out: EC50, transcriptional activity of Nurr1-LBD): ~10 µM and 10 µM
fold lower concentration of maximal efficiency than CQ, Nurr1-LBD (Nurr1-LBD [13]; versus CQ): 5 fold
cell viability, MTT reduction assay (MN9D cells [14]; 500 μM MPP+): dose-dependently increased cell viability
protective effect against MPP+-induced toxicity under Nurr1 overexpression (OE) (MN9D cells [14]; CQ 100 μM, SPV-94 1 μM, vs Mock): potentiated protective effects
